These results are taken from US6331555A, “Treatment of platelet derived growth factor related disorders such as cancers” (priority 1999, dated 2001).

Each structure is given as a SMILES string.

The nature of the series: in vivo. To be noted: mouse, ip. The procedure: The LD50 was calculated from a plot of % mortality versus dose (log M) using a four parameter logistic equation.

As a reminder, the LD50 is the dose expected to kill half of the subjects tested. A low value points to a more toxic substance. In the case of `Cc1oncc1C(=O)Nc1ccc(C(F)(F)F)cc1` [Compound A10, 5-methylisoxazole-4 carboxylic acid-(4-trifluromethyl)-anilide], the 50% lethal dose (LD50) came out at 145 mg/kg.
